Assay results from patent publication US20240124434A1, “ATF6 INHIBITORS AND USES THEREOF” (Altos Labs, Inc., priority 2018, published 2024).
Like-named read-outs stand apart in the source and are kept apart here.

System: ATF6
Test: ERSE ATF6-luciferase reporter assay (thapsigargin-induced ER stress)
Type: cell-based, human
Conditions: Homo sapiens, U2OS, thapsigargin-induced ER stress, U2-OS ATF6 luc reporter cells; for inhibition at 1 µM: 8 h, 8 hr
Procedure: Human bone osteosarcoma (U2-OS) cells were obtained from the American Type Culture Collection (ATCC HTB-96, ATCC Manassas, VA) and were cultured with growing medium containing Dulbecco's Modified Eagle's Medium (DMEM) (Cat. No.:SH30023.02, HyClone) supplemented with fetal bovine serum (FBS) 10% (Cat. No.: 16000044, Gibco) and 1% penicillin-streptomycin antibiotic cocktail (Cat. No.: SV30010, Hyclone).
Cignal Lenti ATF6 luc reporter (Qiagen #CLS-6031L) was used to produce a stable cell line in U2-OS cells. […] The number of response elements as well as the intervening sequence between response elements has been experimentally optimized to maximize the signal to noise ratio.
Compounds were prepared as 10 mM stock solutions and stored at −80° C.
U2-OS ATF6 luc reporter cells were thawed 3-4 days and split once prior to assays. […] At the day of experiment, cells were pre-treated for 30 min with 50 μL growing medium containing either vehicle (dimethyl sulfoxide (DMSO)) (Cat. No.: D2650, Sigma-Aldrich) or 1 μM test compound. After the pre-incubation time, 50 μL of a solution containing 0.2 μM thapsigargin (Tg)(an ER stress inducer) was added to respective wells. This Tg solution also contained vehicle or test compounds at 1 μM. The final concentration of DMSO in each well was kept at 0.3%. Plates were incubated for 8 hr in humidified chambers.
Finally, after 8 hr, plates were cooled to room temperature for 10 min prior to luciferase assays. Luciferase reactions were performed using Luciferase Assay System (Cat. No.: E4550, Promega). Briefly, each well was washed with 100 μl of PBS1X and then 20 μl of lysis reagent were added into each well. Plates were shaken for 10 min, then 50 μl of Luciferase Assay Reagent were added to each well and luminescence was read with an integration time of 1 s and a gain of 110 in a Synergy 4 Microplate reader.
For the assessment of the half-maximal inhibitory concentration (IC50) for selected compounds, dose-response assays were performed. Compounds were serially diluted using DMSO starting at 30 μM until 1 nM. The assays were run as described above.

[1] = 1 μM test compound, read-out: Inh. ATF6-Luc @ 1 μM [%]
[2] = dose-response 30 μM to 1 nM, read-out: IC50 ATF6-Luc reporter
[3] = read-out: Inh. ATF6-Luc @ 1 μM [%], 1 μM test compound
[4] = read-out: IC50 ATF6-Luc reporter [μM], dose-response 30 μM to 1 nM

Structure (SMILES) | IC50 [2] | IC50 [4] | inhibition at 1 µM [1] | inhibition at 1 µM [3]
C[C@@H](c1ccc(C(F)(F)F)cc1C(F)(F)F)n1cc(NC(=O)c2cnc(-c3ccccn3)s2)cn1 [Compound 105, (S)—N-(1-(1-(2,4-bis(trifluoromethyl)phenyl)ethyl)-1H-pyrazol-4-yl)-2-(pyridin-2-yl)thiazole-5-carboxamide] | – | > 10 µM | – | < 25%
CC(c1ccc(C(F)(F)F)cc1C(F)(F)F)n1cc(NC(=O)c2cc(-c3ccccn3)n(C)n2)cn1 (centres unmarked) [Compound 113, N-(1-(1-(2,4-bis(trifluoromethyl)phenyl)ethyl)-1H-pyrazol-4-yl)-1-methyl-5-(pyridin-2-yl)-1H-pyrazole-3-carboxamide] | > 10 µM | – | < 25% | –
Cc1cccc(-c2cc(C(=O)Nc3cnn(Cc4ccc(C(F)(F)F)cc4C(F)(F)F)c3)no2)n1 [Compound 115, N-(1-(2,4-bis(trifluoromethyl)benzyl)-1H-pyrazol-4-yl)-5-(6-methylpyridin-2-yl)isoxazole-3-carboxamide] | > 10 µM | – | 25 to 50% | –
Cc1cccc(-c2cc(C(=O)Nc3cnn([C@H](C)c4ccc(C(F)(F)F)cc4C(F)(F)F)c3)no2)n1 [Compound 116, (R)—N-(1-(1-(2,4-bis(trifluoromethyl)phenyl)ethyl)-1H-pyrazol-4-yl)-5-(6-methylpyridin-2-yl)isoxazole-3-carboxamide] | > 10 µM | – | 25 to 50% | –
Cc1cccc(-c2cc(C(=O)Nc3cnn([C@@H](C)c4ccc(C(F)(F)F)cc4C(F)(F)F)c3)no2)n1 [Compound 117, (S)—N-(1-(1-(2,4-bis(trifluoromethyl)phenyl)ethyl)-1H-pyrazol-4-yl)-5-(6-methylpyridin-2-yl)isoxazole-3-carboxamide] | > 10 µM | – | < 25% | –
C[C@H](c1ccc(C(F)(F)F)cc1C(F)(F)F)n1cc(NC(=O)c2cc(-c3ccccn3)[nH]n2)cn1 [Compound 119, (R)—N-(1-(1-(2,4-bis(trifluoromethyl)phenyl)ethyl)-1H-pyrazol-4-yl)-5-(pyridin-2-yl)-1H-pyrazole-3-carboxamide] | > 10 µM | – | < 25% | –
C[C@@H](c1ccc(C(F)(F)F)cc1C(F)(F)F)n1cc(NC(=O)c2cc(-c3ccccn3)[nH]n2)cn1 [Compound 120, (S)—N-(1-(1-(2,4-bis(trifluoromethyl)phenyl)ethyl)-1H-pyrazol-4-yl)-5-(pyridin-2-yl)-1H-pyrazole-3-carboxamide] | > 10 µM | – | < 25% | –
C[C@@H](c1ccc(C(F)(F)F)cc1C(F)(F)F)n1cc(NC(=O)c2cn(-c3ccccn3)nn2)cn1 [Compound 122, (S)—N-(1-(1-(2,4-bis(trifluoromethyl)phenyl)ethyl)-1H-pyrazol-4-yl)-1-(pyridin-2-yl)-1H-1,2,3-triazole-4-carboxamide] | – | > 10 µM | – | < 25%
C[C@H](c1ccc(C(F)(F)F)cc1C(F)(F)F)n1cc(NC(=O)c2coc(-c3ccccn3)n2)cn1 [Compound 125, (R)—N-(1-(1-(2,4-bis(trifluoromethyl)phenyl)ethyl)-1H-pyrazol-4-yl)-2-(pyridin-2-yl)oxazole-4-carboxamide] | > 10 µM | – | < 25% | –
C[C@H](c1ccc(C(F)(F)F)cc1C(F)(F)F)n1cc(NC(=O)c2cnc(-c3ccccn3)o2)cn1 [Compound 127, (R)N-(1-(1-(2,4-bis(trifluoromethyl)phenyl)ethyl)-1H-pyrazol-4-yl)-2-(pyridin-2-yl)oxazole-5-carboxamide] | > 10 µM | – | < 25% | –
O=C(Nc1cnn(Cc2ccc(C(F)(F)F)cc2C(F)(F)F)c1)c1cnc(Nc2ccccn2)s1 [Compound 130, N-(1-(2,4-bis(trifluoromethyl)benzyl)-1H-pyrazol-4-yl)-2-(pyridin-2-ylamino)thiazole-5-carboxamide] | > 10 µM | – | < 25% | –
C[C@@H](c1ccc(C(F)(F)F)cc1C(F)(F)F)n1cc(NC(=O)c2cc(-c3cnccn3)on2)cn1 [Compound 132, (S)—N-(1-(1-(2,4-bis(trifluoromethyl)phenyl)ethyl)-1H-pyrazol-4-yl)-5-(pyrazin-2-yl)isoazole-3-carboxamide] | – | > 10 µM | – | < 25%
C[C@H](c1ccc(C(F)(F)F)cc1C(F)(F)F)n1cc(NC(=O)c2nnc(-c3ccccn3)o2)cn1 [Compound 133, (R)—N-(1-(1-(2,4-bis(trifluoromethyl)phenyl)ethyl)-1H-pyrazol-4-yl)-5-(pyridin-2-yl)-1,3,4-oxadiazole-2-carboxamide] | > 10 µM | – | < 25% | –
C[C@@H](c1ccc(C(F)(F)F)cc1C(F)(F)F)n1cc(NC(=O)c2nnc(-c3ccccn3)o2)cn1 [Compound 134] | > 10 µM | – | < 25% | –
Cc1c(C(=O)Nc2cnn(Cc3ccc(C(F)(F)F)cc3C(F)(F)F)c2)noc1-c1ccccn1 [Compound 135, N-(1-(2,4-bis(trifluoromethyl)benzyl)-1H-pyrazol-4-yl)-4-methyl-5-(pyridin-2-yl)isoxazole-3-carboxamide] | > 10 µM | – | 25 to 50% | –
CC(c1ccc(F)cc1C(F)(F)F)n1cc(NC(=O)c2nnc(-c3ccccn3)s2)cn1 (centres unmarked) [Compound 137, N-(1-(1-(4-fluoro-2-(trifluoromethyl)phenyl)ethyl)-1H-pyrazol-4-yl)-5-(pyridin-2-yl)-1,3,4-thiadiazole-2-carboxamide] | > 10 µM | – | < 25% | –
C[C@@H](c1ccc(C(F)(F)F)cc1C(F)(F)F)n1cc(NC(=O)c2ccccn2)cn1 [Compound 139, (S)—N-(1-(1-(2,4-bis(trifluoromethyl)phenyl)ethyl)-1H-pyrazol-4-yl)picolinamide] | > 10 µM | – | < 25% | –

More lines, main results first:

IC50 [2] | IC50 [4] | Structure (SMILES) | inhibition at 1 µM [1] | inhibition at 1 µM [3]
> 10 µM | – | C[C@@H](c1ccc(C(F)(F)F)cc1C(F)(F)F)n1cc(NC(=O)c2cc(-c3ncccn3)on2)cn1 [Compound 102, (S)—N-(1-(1-(2,4-bis(trifluoromethyl)phenyl)ethyl)-1H-pyrazol-4-yl)-5-(pyrimidin-2-yl)isoxazole-3-carboxamide] | < 25% | –
> 10 µM | – | Cc1nc(-c2ccccn2)sc1C(=O)Nc1cnn([C@H](C)c2ccc(C(F)(F)F)cc2C(F)(F)F)c1 [Compound 106, (R)—N-(1-(1-(2,4-bis(trifluoromethyl)phenyl)ethyl)-1H-pyrazol-4-yl)-4-methyl-2-(pyridin-2-yl)thiazole-5-carboxamide] | < 25% | –
> 10 µM | – | Cc1nc(-c2ccccn2)sc1C(=O)Nc1cnn([C@@H](C)c2ccc(C(F)(F)F)cc2C(F)(F)F)c1 [Compound 107, (S)—N-(1-(1-(2,4-bis(trifluoromethyl)phenyl)ethyl)-1H-pyrazol-4-yl)-4-methyl-2-(pyridin-2-yl)thiazole-5-carboxamide] | < 25% | –
> 10 µM | – | C[C@H](c1ccc(C(F)(F)F)cc1F)n1cc(NC(=O)c2cc(-c3ccccn3)on2)cn1 [Compound 108, (R)—N-(1-(1-(2-fluoro-4-(trifluoromethyl)phenyl)ethyl)-1H-pyrazol-4-yl)-5-(pyridine-2-yl)isoxazole-3-carboxamide] | < 25% | –
> 10 µM | – | C[C@@H](c1ccc(C(F)(F)F)cc1F)n1cc(NC(=O)c2cc(-c3ccccn3)on2)cn1 [Compound 109, (S)—N-(1-(1-(2-fluoro-4-(trifluoromethyl)phenyl)ethyl)-1H-pyrazol-4-yl)-5-(pyridine-2-yl)isoxazole-3-carboxamide] | < 25% | –
> 10 µM | – | C[C@@H](c1ccc(F)cc1C(F)(F)F)n1cc(NC(=O)c2cc(-c3ccccn3)on2)cn1 [Compound 111, (S)—N-(1-(1-(4-fluoro-2-(trifluoromethyl)phenyl)ethyl)-1H-pyrazol-4-yl)-5-(pyridin-2-yl)isoxazole-3-carboxamide] | < 25% | –
> 10 µM | – | CC(c1ccc(C(F)(F)F)cc1C(F)(F)F)n1cc(NC(=O)c2cc(-c3ccccn3)nn2C)cn1 (centres unmarked) [Compound 112, N-(1-(1-(2,4-bis(trifluoromethyl)phenyl)ethyl)-1H-pyrazol-4-yl)-1-methyl-3-(pyridin-2-yl)-1H-pyrazole-5-carboxamide] | 25 to 50% | –
1 to 10 µM | – | O=C(Nc1cnn(Cc2ccc(C(F)(F)F)cc2C(F)(F)F)c1)c1cnc(-c2ccccn2)s1 [Compound 118, N-(1-(2,4-bis(trifluoromethyl)benzyl)-1H-pyrazol-4-yl)-2-(pyridin-2-yl)thiazole-5-carboxamide] | < 25% | –
